Entries after “also recorded” stand apart in the source; their conditions may differ.
Key:
[1] = tested on: GL261 tumor bearing mice; assay: GL261 glioma model: tumor lysate vaccine +/- antagonist, tumor growth by imaging and survival; type: in vivo, C57BL/6 mice; settings: for Tumor growth: tumor lysate vaccine + antagonist vs tumor lysate alone or saline, weekly imaging; for Survival: GL261 glioma model, tumor lysate vaccine + antagonist
Experimental: FIGS. 4A-4C. FIG. 4A) GL261 tumor bearing mice were inoculated with 50 μg of antagonist 6059 one day prior to vaccination with tumor lysate (65 μg)+/−the antagonist 6059 (50 μg). FIG. 4B) Mice were imaged weekly for tumor growth. The following groups were studied: saline (1), tumor lysate (2), and tumor lysate+6059 (3). FIG. 4C) Percent survival post inoculation for saline (1), tumor lysate (2), and tumor lysate+6059 (3) groups.
FIGS. 5A-5B. FIG. 5A) GL261 tumor bearing mice were inoculated with 10 μg of 6059 on day 2 into the tumor site then with 50 μg of antagonist 6059 one day prior to vaccination with tumor lysate (65 μg)+the antagonist 6059 (50 μg). FIG. 5B) Mice were imaged weekly for tumor growth. The following groups were studied: saline (1), tumor lysate+6059 (2), and CNS+tumor lysate+6059 (3) groups.
Whether vaccination with CD200R antagonists could enhance the survival of tumor-bearing mice was also studied. […] GL261 tumor bearing mice were vaccinated weekly with saline, tumor lysates (TL) or tumor lysates+an antagonist (4004, 4013, 6059).
Tumor-bearing mice were inoculated in the brain with 10 μg of the inhibitor 6059 at the same coordinates at which the tumor was injected two days previously. This was followed by weekly injections of tumor lysate+inhibitor (FIGS. 5A-5B).
(§1) Tumors were implanted into female C57BL/6 mice (6-8 wk old) (Jackson Laboratory) and maintained in a pathogen-free facility according to the guidelines of the University of Minnesota Animal Care and Use Committee. The GL261 orthotopic transplant model was established in C57BL/6 (B6) mice by inoculation with 15,000 GL261-Luc^+ cells in 1 μl of saline. Tumors were implanted stereotactically into the right striatum; coordinates were 2.5 mm lateral, 0.5 mm anterior of bregma, and 3 mm deep from the cortical surface of the brain^19. Tumor burden was determined by bioluminescent imaging. Light emitted from the tumors was quantified using Living Image software (Xenogen) and expressed as photons per second per centimeter squared per steradian (p/s/cm^2/sr). GL261 cells for tumor lysate vaccines were cultured in neural stem cell media consisting of DMEM/F12 (1:1) with L-glutamine, sodium bicarbonate, penicillin/streptomycin (100 U/ml), B27 and N2 supplements (Life Technologies), and 0.1 mg/ml Normocin (Invivogen). Cultures were maintained at 5% 02 and supplemented with 20 ng/ml EGF and FGF semiweekly (R&D Systems, Minneapolis, Minn.). […] Mice were euthanized when tumors reached 1000 mm^3. […] Tumor cells used to establish both models were cultured in DMEM containing 10% FBS, penicillin/streptomycin (100 U/ml), and 0.1 mg/ml Normocin (Invivogen) in atmospheric oxygen.
Tumor lysates were prepared by dissociating tumor cells with non-enzymatic dissociation solution (Sigma). Cells were then washed 3 times with PBS, re-suspended in 500 μL PBS, and frozen overnight at −80° C. Cells were then lysed by five freeze/thaw cycles of freezing in liquid nitrogen and thawing in a 55° C. water bath. Cell debris was pelleted by centrifugation at 14,000 RCF, and the protein concentration of the supernatant was determined using a Bradford assay. Lysates were stored at −80° C. until use. Each vaccine was prepared on the day of vaccination and consisted of 65 μg of protein tumor lysate and 10 μg Poly:ICLC (Oncovir, Inc.), with or without 50 μg of the 6059 peptide antagonist, in a final volume of 100 μL injected intradermally in the back of the neck. For survival studies, vaccines were administered weekly starting three days post-tumor implantation for a total of 6 doses. In T cell priming experiments, CD8 T-cell priming experiments, animals were vaccinated intradermally on four consecutive days with 100 μg Ovalbumin (OVA) and 10 μg Poly:ICLC, and once more on day eleven^19.

[2] = tested on: EMT6 tumor bearing mice; assay: EMT6 breast carcinoma model: tumor lysate + CpG +/- competitive inhibitor, survival; type: in vivo, BALB/c mice
Experimental: FIG. 6. Percent survival of mice inoculated with 1×10^6 EMT6 cells. To determine if our competitive inhibitors worked in other tumor models, mice were inoculated in the fat pad with 1×10^6 EMT6 cells. Specifically, mice were vaccinated with 65 μg of EMT6 tumor lysates+50 μg of adjuvant CpG and 50 μg of different completive inhibitors (6059, 4004, 4013 and 6061) and monitored for survival. Saline and tumor lysate+adjuvant CpG were used as controls.
FIGS. 19A-19B. Select CD200 antagonists enhance survival. (FIG. 19A) EMT6 tumor bearing mice were vaccinated with tumor lysate, CpG+/−CD200 antagonist 4004, 4013 or 6059. […] Log-rank analysis was used for survival.
as §1

Sequence: NTIGDGGCY [Antagonist 6059]
- Tumor growth after inoculation of the inhibitor into the CNS tumor site ([1]; GL261, 10 μg in the brain on day 2, then tumor lysate + inhibitor): Tumor growth was delayed; also recorded: further suppressed tumor growth
- Survival enhancement / survival benefit ([1]; GL261, tumor lysate + antagonist): 30%
- Tumor growth ([1]; GL261): tumors grow faster in mice vaccinated with saline or tumor lysate alone compared to mice vaccinated with tumor lysate plus an antagonist; also recorded: slowed tumor growth
- Tumor growth ([1]; GL261, listed as CD200R antagonist): statistically significant inhibition of tumor growth
- Survival [1]: increased survival benefit; also recorded: enhancing survival
- Survival ([1]; listed as CD200R antagonist): enhanced survival benefit
- Survival [2]: results translated to a breast carcinoma (EMT6) model; also recorded: significantly extended survival benefit
